{"source": "patent US10351915B2", "about": "(Berg LLC, priority 2009, dated 2019)", "key": {"[1]": {"test_system": "MCF-7", "experiment": "Nexin assay for apoptosis (flow cytometry)", "format": "cell-based", "conditions": "50 μM and 100 μM Q10, 24 hours", "description": "(§1) The 7AAD dye will enter into cells with permeabilized cell membranes; primarily those cells that are in late apoptosis. Annexin-V-PE is a dye that binds to Phosphotidyl serine, which is exposed on the outer surface of the plasma membrane in early apoptotic cells. The Nexin reagent thus can be used to differentiate between different populations of apoptotic cells in a flow cytometer."}, "[2]": {"test_system": "SKBr3", "experiment": "Nexin assay for apoptosis (flow cytometry)", "format": "cell-based, human", "conditions": "50 μM or 100 μM Q10, 24 hours", "description": "as §1"}, "[3]": {"experiment": "LC-MS/MS quantification of Q10, Q10H2 and Q9 in mitochondrial enriched samples", "format": "cell-based", "procedure": "Ten μl of each sample was injected."}, "[4]": {"test_system": "SCC cells", "experiment": "Real-time PCR Heat Shock Protein Array", "format": "cell-based", "description": "(§2) The control cells were untreated cells.\nHeat Shock Arrays were run for SCC cells and the data of regulated genes is summarized below in Table 13."}, "[5]": {"test_system": "SCC cells", "experiment": "Real-time PCR Diabetes Array", "format": "cell-based", "description": "as §2"}, "[6]": {"test_system": "ATP Citrate Lyase (ACL)", "experiment": "Western blot, ATP Citrate Lyase levels", "format": "cell-based, human", "conditions": "for ATP Citrate Lysase as % of CTRL, Normalized Intensity: 48 h", "procedure": "After transfer each of the blots was placed in between 2 Whatman Filter papers and dried for 15-20 minutes. After drying the blots were labeled with the date, the type of samples and either blot 1 or blot 2 using a HB pencil. The molecular weight markers were outlined with the pencil and with single lines for the blue and a doublet for the colored markers. The blots were activated with methanol for 5 seconds, washed with water for 5 minutes, and TBST for 15 minutes. The blots were blocked for 1 hour with 5% blocking reagent in TBS-T at room temperature and then washed 3 times with TBS-T (1×-15′; 2×5′ each). Blot 1 was probed with the primary antibody for IDH1 (Cell Signaling #3997) in TBST with 5% BSA (at 1:1000 dilutions) and blot 2 with the rabbit polyclonal antibody for ATP Citrate Lyase in 5% BSA (Cell Signaling #4332) at 1:1000 dilution by incubation overnight at 4 deg C. with shaking. After the overnight incubation with primary antibodies, the blots were washed 3 times with TBS-T (1×-15′; 2×5′ each) and probed with the secondary antibody (antirabbit; 1:10,000 dilution) for 1 h on the orbital tilting shaker at room temperature. After 1 h of incubation with secondary antibodies, the blots were washed 3 times with TBS-T (1×-15′; 2×5′ each) and then incubated with ECF reagent for 5 mins and then each blot scanned with 5100 Fuji Laser scanner at 25 uM resolution, 16 bit, green laser, at 400V and at 500 V.\nThe Isocitrate dehydrogenase blot was stripped by incubating for 30 minutes with methanol, followed by two 10 minute washes with TBS-T, then 30 minutes of incubation with stripping buffer at 50 deg C., and followed by two washes with 100 ml or more of TBS-T for 30′ each. The blot was scanned in laser scanner to check for complete stripping. The blot was activated with methanol for 5 seconds, washed with water for 5 minutes, and TBST for 15 minutes. The blot was blocked for 1 hour with 5% blocking reagent in TBS-T at room temperature and then washed 3 times with TBS-T (1×-15′; 2×5′ each). This was then probed with the rabbit polyclonal antibody for ATP Citrate Lyase in 5% BSA (Cell Signaling #4332) at 1:1000 dilution overnight at 4 deg C. with shaking. After the overnight incubation with primary antibody for ATP Citrate Lyase, the membrane was washed 3 times with TBS-T (1×-15′; 2×5′ each) and probed with the secondary antibody (antirabbit; 1:10,000 dilution) for 1 h on the orbital tilting shaker at room temperature. After 1 h of incubation with secondary antibodies, the blot was washed 3 times with TBS-T (1×-15′; 2×5′ each) and then incubated with ECF reagent for 5 minutes and then each blot scanned with 5100 Fuji Laser scanner at 25 uM resolution, 16 bit, green laser, at 400V and at 500 V.\nThe levels of IDH1, ATP citrate lyase and actin levels were determined by probing the blots with primary antibodies for IDH1, ATP citrate lyase and actin, essentially as described above."}, "[7]": {"test_system": "Bcl2", "experiment": "Bcl2 level after CoQ-10 in the presence of VEGF", "format": "cell-based", "conditions": "normal fibroblast, co-administration with VEGF"}, "[8]": {"conditions": "one study with rats; cited from earlier work"}, "[9]": {"conditions": "cited from earlier work"}, "[10]": {"test_system": "skin cancer cells", "conditions": "skin cancer cells vs normal cells; cited from earlier work"}}, "data": [{"smiles": "COC1=C(OC)C(=O)C(C/C=C(\\C)CC/C=C(\\C)CC/C=C(\\C)CC/C=C(\\C)CC/C=C(\\C)CC/C=C(\\C)CC/C=C(\\C)CC/C=C(\\C)CC/C=C(\\C)CCC=C(C)C)=C(C)C1=O", "note": "[Q10, Coenzyme Q10]", "values": [{"measurement": "apoptotic population", "setting": "[1]", "result": "an increase only in early apoptotic population"}, {"measurement": "early and late apoptosis", "setting": "[2]", "result": "did not show any significant increases of early and late apoptosis"}, {"measurement": "increase in Q10 levels in mitochondria", "setting": "[3]; 100 μM Q10, 19 hours", "result": "~3", "unit": "fold"}, {"measurement": "increase in Q10 levels in mitochondria", "setting": "[3]; 100 μM Q10, 48 hour time point", "result": "~6", "unit": "fold"}, {"measurement": "form of Q10 in mitochondria", "setting": "[3]; exogenous Q10 added to the media", "result": "maintained in the supplied oxidized form"}, {"measurement": "DNAJA1 Regulation", "setting": "[4]; 100 μM Q10, at 6 hours", "result": "Up regulated at 6"}, {"measurement": "DNAJB5 Regulation", "setting": "[4]; 100 μM Q10, at 6 hours", "result": "Down regulated"}, {"measurement": "DNAJB13 Regulation", "setting": "[4]; 100 μM Q10, at 6 hours", "result": "Down regulated"}, {"measurement": "DNAJC4 Regulation", "setting": "[4]; 100 μM Q10, at 6 hours", "result": "Down regulated"}, {"measurement": "DNAJC5B Regulation", "setting": "[4]; 100 μM Q10, at 6 hours", "result": "Down regulated"}, {"measurement": "DNAJC12 Regulation", "setting": "[4]; 100 μM Q10, at 6 hours", "result": "Down regulated"}, {"measurement": "HSPA8 Regulation", "setting": "[4]; 100 μM Q10, at 6 hours", "result": "Up regulated at 6"}, {"measurement": "HSPH1 Regulation", "setting": "[4]; 100 μM Q10, at 6 hours", "result": "Up regulated at 6"}, {"measurement": "CCT6B Regulation", "setting": "[4]; 100 μM Q10, at 24 hours", "result": "Down regulated"}, {"measurement": "Regulation (mRNA)", "setting": "[5]; 100 μM Q10, at 6 and 24 hours", "result": "Down regulated at 6 and 24"}, {"measurement": "Regulation (mRNA)", "setting": "[5]; 100 μM Q10, at 6 hours", "result": "Down regulated at 6 hours."}, {"measurement": "ATP Citrate Lysase as % of CTRL, Normalized Intensity", "setting": "[6]; HepG2, 5g glucose, amount 50", "result": "0.85 % of CTRL"}, {"measurement": "ATP Citrate Lysase as % of CTRL, Normalized Intensity", "setting": "[6]; HepG2, 5g glucose, amount 100", "result": "0.79 % of CTRL"}, {"measurement": "ATP Citrate Lysase as % of CTRL, Normalized Intensity", "setting": "[6]; HepG2, 22G glucose, amount 100", "result": "2.09 % of CTRL"}, {"measurement": "ATP Citrate Lysase as % of CTRL, Normalized Intensity", "setting": "[6]; PACA2, 5g glucose, amount 50", "result": "0.68 % of CTRL"}, {"measurement": "ATP Citrate Lysase as % of CTRL, Normalized Intensity", "setting": "[6]; PACA2, 5g glucose, amount 100", "result": "0.42 % of CTRL"}, {"measurement": "ATP Citrate Lysase as % of CTRL, Normalized Intensity", "setting": "[6]; PACA2, 22G glucose, amount 50", "result": "1.12 % of CTRL"}, {"measurement": "expression of ACL", "setting": "[6]; cancer cells", "result": "dose-dependent decrease"}, {"measurement": "levels of Bcl2", "setting": "[7]", "result": "no effect on the levels of Bcl2"}, {"measurement": "orally-administered CoQ10 absorbed", "setting": "[8]", "result": "2-3%"}, {"measurement": "solubility in water", "setting": "[9]", "result": "insoluble in water"}, {"measurement": "rate of apoptosis", "setting": "[10]", "result": "increase the rate of apoptosis in a culture of skin cancer cells but not normal cells"}]}]}
